Laboratory results as given in article PMC6199744, “Development of Chemical Proteomics for the Folateome and Analysis of the Kinetoplastid Folateome” (ACS Infectious Diseases, 2018).
Read-outs that look alike come from different tables or passages of the source.

Key:
Assay type in all cases: binding
[1] = target: T1, HeLa cell extract proteins (Homo sapiens, UniProt O60701)
T1 construct: endogenous in cells; host or cells: HeLa cell extract
T1 sequence (O60701 1-494): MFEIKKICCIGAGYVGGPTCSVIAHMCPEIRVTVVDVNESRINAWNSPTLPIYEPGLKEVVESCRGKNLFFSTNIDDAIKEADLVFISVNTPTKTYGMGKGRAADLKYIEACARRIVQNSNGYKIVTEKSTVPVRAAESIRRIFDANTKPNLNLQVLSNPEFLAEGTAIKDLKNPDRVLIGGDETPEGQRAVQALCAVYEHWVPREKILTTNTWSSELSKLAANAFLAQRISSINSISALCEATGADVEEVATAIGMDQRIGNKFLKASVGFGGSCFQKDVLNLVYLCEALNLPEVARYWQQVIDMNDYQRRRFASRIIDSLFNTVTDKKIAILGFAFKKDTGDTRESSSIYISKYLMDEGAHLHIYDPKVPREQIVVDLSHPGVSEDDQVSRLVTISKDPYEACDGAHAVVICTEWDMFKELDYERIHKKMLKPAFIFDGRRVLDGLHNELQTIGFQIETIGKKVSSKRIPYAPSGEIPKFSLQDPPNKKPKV

[2] = target: T2, HeLa cell extract proteins (Homo sapiens, UniProt P56589)
T2 construct: endogenous in cells; host or cells: HeLa cell extract
T2 sequence (P56589 1-373): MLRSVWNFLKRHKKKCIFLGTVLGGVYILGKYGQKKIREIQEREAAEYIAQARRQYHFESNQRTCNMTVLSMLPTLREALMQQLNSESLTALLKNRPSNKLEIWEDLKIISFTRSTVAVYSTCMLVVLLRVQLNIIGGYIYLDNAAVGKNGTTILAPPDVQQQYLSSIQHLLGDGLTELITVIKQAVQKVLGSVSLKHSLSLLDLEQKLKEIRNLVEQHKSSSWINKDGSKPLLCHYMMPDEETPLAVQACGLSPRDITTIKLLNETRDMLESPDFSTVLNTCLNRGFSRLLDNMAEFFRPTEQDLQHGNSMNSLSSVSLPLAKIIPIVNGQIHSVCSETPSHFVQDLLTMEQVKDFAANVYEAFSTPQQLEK

[3] = target: T3, HeLa cell extract proteins (Homo sapiens, UniProt P68104)
T3 construct: endogenous in cells; host or cells: HeLa cell extract
T3 sequence (P68104 1-462): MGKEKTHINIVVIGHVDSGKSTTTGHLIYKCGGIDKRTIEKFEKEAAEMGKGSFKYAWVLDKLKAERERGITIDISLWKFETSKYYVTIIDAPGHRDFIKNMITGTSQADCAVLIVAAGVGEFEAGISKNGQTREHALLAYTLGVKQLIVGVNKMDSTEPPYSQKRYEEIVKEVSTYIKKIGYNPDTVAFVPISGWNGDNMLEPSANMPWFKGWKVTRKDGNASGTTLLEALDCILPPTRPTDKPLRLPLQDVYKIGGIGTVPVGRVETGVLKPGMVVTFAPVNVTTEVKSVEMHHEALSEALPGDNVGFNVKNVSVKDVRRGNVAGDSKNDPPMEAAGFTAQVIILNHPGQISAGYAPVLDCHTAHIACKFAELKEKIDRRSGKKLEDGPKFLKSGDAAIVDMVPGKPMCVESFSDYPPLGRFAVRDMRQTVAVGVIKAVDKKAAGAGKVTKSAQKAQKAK

[4] = target: T4, HeLa cell extract proteins (Homo sapiens, UniProt Q9UBN7)
T4 construct: endogenous in cells; host or cells: HeLa cell extract
T4 sequence (Q9UBN7 1-1215): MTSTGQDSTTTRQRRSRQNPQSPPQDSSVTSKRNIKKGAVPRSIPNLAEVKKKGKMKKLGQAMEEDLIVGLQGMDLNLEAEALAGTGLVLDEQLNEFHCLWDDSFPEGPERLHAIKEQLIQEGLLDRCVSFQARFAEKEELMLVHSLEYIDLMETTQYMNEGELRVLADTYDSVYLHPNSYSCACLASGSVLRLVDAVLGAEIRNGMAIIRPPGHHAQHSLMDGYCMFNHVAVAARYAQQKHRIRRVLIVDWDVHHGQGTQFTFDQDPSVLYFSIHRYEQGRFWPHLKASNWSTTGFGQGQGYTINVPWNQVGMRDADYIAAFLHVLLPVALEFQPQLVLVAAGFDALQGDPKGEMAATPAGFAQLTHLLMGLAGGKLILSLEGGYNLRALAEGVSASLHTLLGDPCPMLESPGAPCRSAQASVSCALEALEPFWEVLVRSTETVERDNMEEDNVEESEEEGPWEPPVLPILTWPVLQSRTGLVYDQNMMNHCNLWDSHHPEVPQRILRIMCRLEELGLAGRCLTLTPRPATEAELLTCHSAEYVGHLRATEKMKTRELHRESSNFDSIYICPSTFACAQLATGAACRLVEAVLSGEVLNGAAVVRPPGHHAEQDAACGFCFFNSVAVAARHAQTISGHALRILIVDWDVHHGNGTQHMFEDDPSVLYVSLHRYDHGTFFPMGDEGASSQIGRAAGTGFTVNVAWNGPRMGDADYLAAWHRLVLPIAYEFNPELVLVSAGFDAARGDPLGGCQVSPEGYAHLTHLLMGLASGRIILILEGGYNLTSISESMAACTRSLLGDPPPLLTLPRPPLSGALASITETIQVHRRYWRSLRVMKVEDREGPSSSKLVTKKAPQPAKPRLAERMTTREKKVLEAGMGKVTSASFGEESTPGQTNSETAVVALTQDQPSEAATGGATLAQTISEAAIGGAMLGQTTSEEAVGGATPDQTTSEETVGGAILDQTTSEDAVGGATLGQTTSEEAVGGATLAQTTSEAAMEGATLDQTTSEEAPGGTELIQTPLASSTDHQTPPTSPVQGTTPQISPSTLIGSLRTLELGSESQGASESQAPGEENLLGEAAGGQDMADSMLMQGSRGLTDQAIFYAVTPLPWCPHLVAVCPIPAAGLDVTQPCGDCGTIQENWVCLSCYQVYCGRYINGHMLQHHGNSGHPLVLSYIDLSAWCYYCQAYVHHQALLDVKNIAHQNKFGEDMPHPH

| Structure (SMILES) | fold changes relative to vehicle control ([1]; HeLa, protein UGDH) | fold changes relative to vehicle control ([2]; HeLa, captured protein PEX3) | fold changes relative to vehicle control ([3]; HeLa, captured protein EEF1A1) | fold changes relative to vehicle control ([4]; HeLa, captured protein HDAC6) | fold changes relative to vehicle control ([1]; protein UGDH, HeLa) | fold changes relative to vehicle control ([2]; HeLa, protein PEX3) | fold changes relative to vehicle control ([3]; protein EEF1A1, HeLa) | fold changes relative to vehicle control ([4]; captured protein HDAC6, HeLa) | other results |
| --- | --- | --- | --- | --- | --- | --- | --- | --- | --- |
| Nc1nc2c(c(=O)[nH]1)N(C=O)C(CNc1ccc(C(=O)N[C@@H](CCC(=O)O)C(=O)O)cc1)CN2 (stereo partly shown) [LEU, leucovorin] | 1.16 | 1.02 | 1.01 | 1.02 |  |  |  |  |  |
| NCCCNc1ccc(C(=O)NC(CCC(=O)O)C(=O)O)cc1 (stereo not shown) [compound 7] | 0.9 | 0.97 | 0.93 | 1.02 |  |  |  |  |  |
| CCCCCCOc1cccc(Cc2cnc(N)nc2N)c1 [compound 2] |  |  |  |  | 1.76 | 0.93 | 1.47 | 1.1 |  |
| CCCCCCOc1ccc(Cc2cnc(N)nc2N)cc1 [compound 1] |  |  |  |  | 1.13 | 0.94 | 1.17 | 0.95 |  |
| Nc1nc2cccc(-c3ccccc3)c2n1Cc1ccc(Cl)c(Cl)c1 [compound 3] |  |  |  |  | 0.78 | 0.92 | 0.97 | 1.14 |  |
| NCCOCCOCC(=O)Nc1nc2ncc(CNc3ccc(C(=O)NC(CCC(=O)O)C(=O)O)cc3)nc2c(=O)[nH]1 (stereo not shown) [compound 6] | 1.41 | 1 | 0.99 | 1.06 |  |  |  |  |  |
| Nc1nc2[nH]cc(CCc3ccc(C(=O)N[C@@H](CCC(=O)O)C(=O)O)cc3)c2c(=O)[nH]1 [PTX, pemetrexed] |  |  |  |  |  |  |  |  | fold changes relative to vehicle control [1]: 1.21; fold changes relative to vehicle control [2]: 0.95; fold changes relative to vehicle control [3]: 0.93; fold changes relative to vehicle control [4]: 0.98 |
